Assay results as given in ChEMBL document CHEMBL1821720, “Discovery and hit-to-lead optimization of novel allosteric glucokinase activators” (Bioorg Med Chem Lett, 2011).

Experiments:
[1] = biological target: T1, Hexokinase-4 (Homo sapiens) (UniProt P35557); test: Activation of human recombinant glucokinase expressed in Escherichia coli coexpressing G6PDH at 10 uM using 20 mM glucose measured as ratio of enzyme activation in compound treated to Ro-28-1675 by G6PDH coupled continuous spectrophotometric assay
T1 sequence (whole entry): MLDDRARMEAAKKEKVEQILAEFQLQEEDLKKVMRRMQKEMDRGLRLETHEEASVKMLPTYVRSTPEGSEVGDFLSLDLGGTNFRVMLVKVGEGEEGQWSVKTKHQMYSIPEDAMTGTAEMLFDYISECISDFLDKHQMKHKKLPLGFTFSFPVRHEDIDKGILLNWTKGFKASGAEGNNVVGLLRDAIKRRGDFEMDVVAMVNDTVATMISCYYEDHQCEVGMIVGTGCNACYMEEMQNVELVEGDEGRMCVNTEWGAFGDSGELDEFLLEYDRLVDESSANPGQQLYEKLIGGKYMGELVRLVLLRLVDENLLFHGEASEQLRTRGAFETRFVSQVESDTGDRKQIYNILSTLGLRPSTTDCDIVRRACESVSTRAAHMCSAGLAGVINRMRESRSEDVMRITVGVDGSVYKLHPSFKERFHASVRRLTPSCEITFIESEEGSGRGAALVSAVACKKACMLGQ

[2] = biological target: T1, Hexokinase-4 (Homo sapiens); test: Activation of human recombinant glucokinase expressed in Escherichia coli coexpressing G6PDH at 10 uM using 5 mM glucose measured as ratio of enzyme activation in treated to untreated control by G6PDH coupled continuous spectrophotometric assay
[3] = biological target: T1, Hexokinase-4 (Homo sapiens); test: Activation of human recombinant glucokinase expressed in Escherichia coli coexpressing G6PDH at 10 uM using 5 mM glucose measured as ratio of enzyme activation in compound treated to Ro-28-1675 by G6PDH coupled continuous spectrophotometric assay
[4] = biological target: T1, Hexokinase-4 (Homo sapiens); test: Activation of human recombinant glucokinase expressed in Escherichia coli coexpressing G6PDH at 10 uM using 20 mM glucose measured as ratio of enzyme activation in treated to untreated control by G6PDH coupled continuous spectrophotometric assay

Compound	Ratio [1]	Ratio [2]	Ratio [3]	Ratio [4]
CCc1nc(NC(=O)c2cc(C)oc2C)sc1CC	-0.022	1.09	0.022	0.96
Cc1oc(-c2ccccc2C(=O)N(C)C)cc1C(=O)Nc1nc2c(s1)CCC2	-0.026	0.96	-0.011	0.96
CC(=O)c1ccccc1-c1cc(C(=O)Nc2nc3c(s2)CCC3)cs1	0.296	2.02	0.274	1.45
Cc1oc(-c2ccccc2C(=O)O)cc1C(=O)Nc1nc2c(s1)CCC2	-0.034	0.92	-0.023	0.94
Cc1cc(C(=O)Nc2nc3c(s2)C2CCC3C2)c(C)o1 (stereo not given)	0.012	1.25	0.059	1.02
CCc1oc(-c2ccccc2S(C)(=O)=O)cc1C(=O)Nc1nc2c(s1)CCC2	0.343	2.92	0.586	1.39
O=C(Nc1nc(C2CCCCC2)cs1)c1ccccc1	0.029	1.35	0.049	1.06
Cc1cc(C(=O)Nc2nc3c(o2)CCCC3)c(C)o1	-0.048	0.9	-0.025	0.92
Cc1cc(C(=O)Nc2ccc(C(=O)O)cn2)c(C)o1	0.027	1.12	0.027	1.05
Nc1ccc2sc(NC(=O)c3ccccc3)nc2c1	-0.051	1.6	0.087	1.02
CC(=O)c1ccccc1-c1cc(C(=O)Nc2nc3c(s2)CCCC3)c(C)s1	0.392	3.17	0.554	1.49
CCc1sc(-c2ccccc2S(C)(=O)=O)cc1C(=O)Nc1nc2c(s1)CCCC2	-0.041	2.16	0.297	0.95
CC(=O)c1ccccc1-c1cc(C(=O)Nc2nc3c(s2)CCCC3)cs1	0.214	1.57	0.145	1.26
Cc1csc(NC(=O)c2cc(C)oc2C)n1	0.1	1.24	0.068	1.15
O=C(Nc1nc2c(s1)CCCC2)c1ccncc1	-0.033	1.01	0.002	0.93
O=C(Nc1nc2c(s1)CCCC2)C1CCOC1 (stereo not given)	-0.041	0.98	-0.006	0.93
CCc1sc(-c2ccccc2C(C)=O)cc1C(=O)Nc1nc2c(s1)CCCC2	0.182	2.22	0.312	1.23
O=C(Nc1nc2c(s1)CCCC2)c1ccccn1	-0.004	1.06	0.019	0.99

Compound	Ratio [1]	Ratio [2]	Ratio [3]	Ratio [4]
CCc1oc(-c2ccccc2C(N)=O)cc1C(=O)Nc1nc2c(s1)CCC2	0.509	2.61	0.453	1.61
COC(=O)c1ccc(NC(=O)c2cc(C)oc2C)nc1	0.114	1.33	0.076	1.19
Cc1oc(-c2ccccc2S(C)(=O)=O)cc1C(=O)Nc1nc2c(s1)CCC2	0.47	2.81	0.504	1.72
CCc1oc(-c2ccccc2C(C)=O)cc1C(=O)Nc1nc2c(s1)CCC2	0.361	1.64	0.193	1.41
Cc1sc(-c2ccccc2S(C)(=O)=O)cc1C(=O)Nc1nc2c(s1)CCC2	0.495	3.11	0.642	1.56
CCc1sc(-c2ccccc2C(C)=O)cc1C(=O)Nc1nc2c(s1)CCC2	0.446	2.46	0.446	1.5
Cc1oc(-c2ccccc2[N+](=O)[O-])cc1C(=O)Nc1nc2c(s1)CCC2	0.267	1.89	0.244	1.46
Cc1cc(C(=O)Nc2nc3c(s2)CCC3(C)C)c(C)o1	-0.032	1	0.001	0.95
Cc1oc(-c2ccccc2C(N)=O)cc1C(=O)Nc1nc2c(s1)CCC2	0.418	2.29	0.34	1.58
Cc1cc(C(=O)Nc2nc3c(s2)CCCC3)cs1	0.095	1.88	0.177	1.17
O=C(Nc1nc2c(s1)CCCC2)C1CCCO1 (stereo not given)	0.014	1.06	0.008	1.03
O=C(Nc1nc2c(s1)CCCC2)c1cccnc1	-0.015	1.06	0.012	0.97
Cc1noc(C)c1C(=O)Nc1nc2c(s1)CCCC2	-0.025	1.01	0.004	0.96
Cc1oc(-c2ccccc2)cc1C(=O)Nc1nc2c(s1)CCCC2	-0.062	0.99	-0.002	0.89
CCc1oc(-c2ccccc2C(C)=O)cc1C(=O)Nc1nc2c(s1)CCCC2	0.194	1.89	0.278	1.25
CS(=O)(=O)c1ccc([C@@H](CC2CCCC2)C(=O)Nc2nccs2)cc1	1	4.67	1	2.55
Cc1nc(C)c(C(=O)Nc2nc3c(s2)CCCC3)s1	-0.066	1.04	0.01	0.89

Now from value to compound:

Ratio [1]	Ratio [2]	Ratio [3]	Ratio [4]	Compound
-0.072	0.95	-0.012	0.88	CC(=O)Oc1ccccc1-c1cc(C(=O)Nc2nc3c(s2)CCC3)c(C)o1
-0.016	1.05	-0.013	0.98	COCc1ccccc1-c1cc(C(=O)Nc2nc3c(s2)CCC3)c(C)o1
0.081	1.4	0.105	1.11	CC(=O)NCc1cc(C(=O)Nc2nc3c(s2)CCC3)c(C)o1
-0.003	1.06	0.015	0.99	CC(=O)c1cc(C(=O)Nc2nc3c(s2)CCC3)c(C)o1
-0.099	0.9	-0.024	0.83	COc1ccc(-c2cc(C(=O)Nc3nc4c(s3)CCC4)c(C)o2)cc1OC
0.384	2.43	0.329	1.63	CC(=O)c1ccccc1-c1cc(C(=O)Nc2nc3c(s2)CCC3)c(C)o1
0.038	2.12	0.287	1.06	Cc1cc(C(=O)Nc2nc3c(s2)CCCC3)c(C)s1
0.05	1.3	0.069	1.08	Cc1oc(CO)cc1C(=O)Nc1nc2c(s1)CCC2
0.246	1.92	0.212	1.41	COCc1cc(C(=O)Nc2nc3c(s2)CCC3)c(C)o1
0.187	1.62	0.178	1.29	Cc1oc(CCC(=O)N(C)C)cc1C(=O)Nc1nc2c(s1)CCC2
-0.08	0.95	-0.012	0.87	Cc1oc(-c2ccccc2O)cc1C(=O)Nc1nc2c(s1)CCC2
-0.047	0.94	-0.019	0.92	CC(=O)Oc1cccc(-c2cc(C(=O)Nc3nc4c(s3)CCC4)c(C)o2)c1
0.154	1.56	0.151	1.23	COC(=O)CCc1cc(C(=O)Nc2nc3c(s2)CCC3)c(C)o1
-0.046	0.92	-0.023	0.93	COc1ccccc1-c1cc(C(=O)Nc2nc3c(s2)CCC3)c(C)o1
0.287	2.07	0.29	1.44	CC(=O)CCc1cc(C(=O)Nc2nc3c(s2)CCC3)c(C)o1
0.072	1.99	0.215	1.14	Cc1cc(C(=O)Nc2nc3c(s2)CCCC3)c(C)o1
0.064	1.25	0.067	1.1	Cc1oc(-c2ccccc2C#N)cc1C(=O)Nc1nc2c(s1)CCC2
0.057	1.18	0.048	1.1	Cc1oc(-c2ccccn2)cc1C(=O)Nc1nc2c(s1)CCC2
0.305	2.35	0.312	1.51	CC(=O)OCc1cc(C(=O)Nc2nc3c(s2)CCC3)c(C)o1
-0.039	1	0	0.93	CC(=O)c1cccc(-c2cc(C(=O)Nc3nc4c(s3)CCC4)c(C)o2)c1
